Measurements as given in article PMC3433420 (PLoS ONE, 2012).
Residues, ends and D or L forms follow the SMILES beside them.

Tests used:
SH2 and PTB domains [1] = target: T1, SH2 and PTB domains (Homo sapiens, UniProt P43403); experiment: In-house protein microarrays (with or without 5 mM DTT), protein named per line; format: binding
T1 construct: thioredoxin; made in house; host or cells: BL21(DE3)pLysS E. coli
T1 sequence (P43403 1-619): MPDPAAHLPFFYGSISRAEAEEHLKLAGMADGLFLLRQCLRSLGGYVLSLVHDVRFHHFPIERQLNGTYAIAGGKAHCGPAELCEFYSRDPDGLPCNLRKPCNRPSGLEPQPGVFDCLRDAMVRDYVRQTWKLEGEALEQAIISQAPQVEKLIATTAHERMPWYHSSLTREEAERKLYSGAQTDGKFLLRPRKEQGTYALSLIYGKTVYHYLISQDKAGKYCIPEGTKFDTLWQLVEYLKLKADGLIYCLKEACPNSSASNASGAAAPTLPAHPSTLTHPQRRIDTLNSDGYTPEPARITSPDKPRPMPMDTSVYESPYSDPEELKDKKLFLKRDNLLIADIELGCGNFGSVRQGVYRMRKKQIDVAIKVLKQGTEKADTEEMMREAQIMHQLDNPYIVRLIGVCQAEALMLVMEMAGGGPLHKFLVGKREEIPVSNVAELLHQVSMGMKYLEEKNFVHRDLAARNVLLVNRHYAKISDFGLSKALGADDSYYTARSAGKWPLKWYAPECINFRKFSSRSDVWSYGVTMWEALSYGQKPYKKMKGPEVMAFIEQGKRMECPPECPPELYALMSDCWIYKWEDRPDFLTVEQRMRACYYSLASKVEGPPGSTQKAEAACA
Summary of the method: (§1)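 KD values come from rhodamine fluorescence of duplicate spots after subtraction of a thioredoxin control. Domains were printed at ~40 µM on aldehyde slides, blocked 1 h at room temperature in pH 7.8 HEPES/KCl buffer with 5 mM DTT and 1% BSA, then peptide-probed.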

SH2 and PTB domains [2] = target: T2, SH2 and PTB domains (Homo sapiens, UniProt P20936); experiment: as above; format: binding
T2 construct: thioredoxin; made in house; host or cells: BL21(DE3)pLysS E. coli
T2 sequence (P20936 1-1047): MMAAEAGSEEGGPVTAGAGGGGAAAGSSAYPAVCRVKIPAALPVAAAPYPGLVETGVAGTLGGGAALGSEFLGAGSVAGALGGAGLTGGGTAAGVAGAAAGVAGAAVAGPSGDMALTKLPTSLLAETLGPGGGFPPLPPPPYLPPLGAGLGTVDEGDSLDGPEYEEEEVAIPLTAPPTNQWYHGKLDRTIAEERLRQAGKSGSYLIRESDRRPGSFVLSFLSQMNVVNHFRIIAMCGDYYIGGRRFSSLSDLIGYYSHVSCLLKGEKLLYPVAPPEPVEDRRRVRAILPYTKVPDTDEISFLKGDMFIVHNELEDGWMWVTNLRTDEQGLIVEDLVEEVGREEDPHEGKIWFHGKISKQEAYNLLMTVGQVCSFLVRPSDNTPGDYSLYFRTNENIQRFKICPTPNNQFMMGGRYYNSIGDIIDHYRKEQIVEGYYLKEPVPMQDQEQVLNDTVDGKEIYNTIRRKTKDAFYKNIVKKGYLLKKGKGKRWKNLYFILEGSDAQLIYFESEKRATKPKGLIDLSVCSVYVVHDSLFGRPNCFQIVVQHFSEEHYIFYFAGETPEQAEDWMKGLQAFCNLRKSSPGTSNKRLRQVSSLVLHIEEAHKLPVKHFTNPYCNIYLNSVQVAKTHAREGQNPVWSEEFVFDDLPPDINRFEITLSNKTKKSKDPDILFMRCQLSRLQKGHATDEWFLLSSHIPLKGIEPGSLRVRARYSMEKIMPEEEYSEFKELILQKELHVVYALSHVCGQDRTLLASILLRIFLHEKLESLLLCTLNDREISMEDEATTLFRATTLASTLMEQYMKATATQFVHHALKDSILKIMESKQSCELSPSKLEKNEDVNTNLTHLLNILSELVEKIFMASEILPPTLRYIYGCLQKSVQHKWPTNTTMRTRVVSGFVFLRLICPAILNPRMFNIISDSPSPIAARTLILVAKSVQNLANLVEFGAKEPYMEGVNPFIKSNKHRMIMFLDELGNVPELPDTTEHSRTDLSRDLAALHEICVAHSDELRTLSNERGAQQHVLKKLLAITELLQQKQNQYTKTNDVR
Summary of the method: as §1

[3] = protein RASA1-NC, PM assay replicate # 39337, array fabrication # 39329

Compound | Kd (SH2 and PTB domains [1]; protein ZAP70-NC, PM assay replicate # 39336, array fabrication # 39329) | Kd (SH2 and PTB domains [1]; protein ZAP70-NC, PM assay replicate # 39337, array fabrication # 39329) | Kd (SH2 and PTB domains [2]; protein RASA1-C, PM assay replicate # 39337, array fabrication # 39329) | Kd (SH2 and PTB domains [2]; protein RASA1-N, PM assay replicate # 39336, array fabrication # 39329) | Kd (SH2 and PTB domains [2]; protein RASA1-N, PM assay replicate # 39337, array fabrication # 39329) | Kd (SH2 and PTB domains [2]; protein RASA1-NC, PM assay replicate # 39336, array fabrication # 39329) | Kd (SH2 and PTB domains [2]; [3]) | Kd (SH2 and PTB domains [2]; protein RASA1-NC, PM assay replicate # 39603, array fabrication # 39392) | Kd (SH2 and PTB domains [2]; protein RASA1-N, PM assay replicate # 39307, array fabrication # 39286) | Kd (SH2 and PTB domains [1]; protein ZAP70-C, PM assay replicate # 39352, array fabrication # 39336)
CC(C)C[C@H](NC(=O)[C@@H]1CCCN1C(=O)[C@H](C)NC(=O)[C@@H](NC(=O)[C@H](Cc1ccc(OP(=O)(O)O)cc1)NC(=O)CNC(=O)[C@H](CC(=O)O)NC(=O)[C@@H](NC(=O)[C@@H](N)CCC(=O)O)[C@@H](C)O)C(C)C)C(=O)N[C@H](C(=O)N[C@@H](CS)C(=O)N[C@@H](CO)C(=O)N[C@@H](CC(=O)O)C(=O)O)[C@@H](C)O [ErbB2 pY1127] | 2.41 µM | 2.01 µM | 1.21 µM | 0.59 µM | 0.11 µM | 0.12 µM | 0.03 µM | 0.06 µM | – | –
CCN(CC)c1ccc2c(-c3ccc(C(=O)N[C@@H](CC(N)=O)C(=O)NCC(=O)N4CCC[C@H]4C(=O)N4CCC[C@H]4C(=O)N[C@@H](CCCCN)C(=O)N[C@@H](C)C(=O)N[C@@H](CCC(=O)O)C(=O)N[C@@H](CC(=O)O)C(=O)N[C@@H](CCC(=O)O)C(=O)N[C@@H](Cc4ccc(OP(=O)(O)O)cc4)C(=O)N[C@H](C(=O)N[C@@H](CC(N)=O)C(=O)N[C@@H](CCC(=O)O)C(=O)N4CCC[C@H]4C(=O)N[C@@H](CC(C)C)C(=O)N[C@@H](Cc4ccc(O)cc4)C(=O)N[C@@H](CC(C)C)C(=O)N[C@@H](CC(=O)O)C(=O)O)C(C)C)cc3C(=O)[O-])c3ccc(=[N+](CC)CC)cc-3oc2c1 [ErbB4 1202 (18-mer)] (HELM PEPTIDE1{[CCN(CC)c1ccc2c(-c3ccc(C(=O)[*:2])cc3C(=O)[O-])c3ccc(=[N+](CC)CC)cc-3oc2c1].N.G.P.P.K.A.E.D.E.[O=C([C@H](Cc1ccc(OP(=O)(O)O)cc1)N[*:1])[*:2]].V.N.E.P.L.Y.L.D}$$$$V2.0) | – | – | – | – | – | – | 8.56 µM | – | 0.66 µM | –
CC[C@H](C)[C@H](NC(=O)[C@H](CC(N)=O)NC(=O)[C@H](CC(N)=O)NC(=O)[C@H](CCCCN)NC(=O)[C@H](CC(C)C)NC(=O)[C@H](Cc1ccc(OP(=O)(O)O)cc1)NC(=O)[C@H](CCC(=O)O)NC(=O)[C@H](C)NC(=O)[C@H](CCCCN)NC(=O)CNC(=O)[C@H](CC(C)C)NC(=O)[C@@H](NC(=O)[C@H](CC(N)=O)NC(=O)[C@H](C)NC(=O)[C@@H](N)Cc1ccccc1)[C@@H](C)O)C(=O)N[C@@H](CC(C)C)C(=O)N[C@@H](CO)C(=O)N[C@@H](CC(=O)O)C(=O)O [ErbB4 pY1221 (18-mer)] (HELM PEPTIDE1{F.A.N.T.L.G.K.A.E.[O=C([C@H](Cc1ccc(OP(=O)(O)O)cc1)N[*:1])[*:2]].L.K.N.N.I.L.S.D}$$$$V2.0) | – | – | – | – | – | – | – | – | – | 0.79 µM
